Source: the NIST ThermoML archive (doi:10.1016/j.jct.2015.09.022)

Experiment: xn = mol fraction of the nth substance listed
Conditions: 100.7 kPa, Liquid; for viscosity: Falling or rolling sphere viscometry; for speed of sound: Frequency=3 MHz, Sing-around technique in a fixed-path interferometer; for mass density: Vibrating tube method

CCCC=O [butanal] + CCCC[n+]1ccn(C)c1.O=S(=O)([N-]S(=O)(=O)C(F)(F)F)C(F)(F)F
Conditions | mass density [kg/m3] | speed of sound [m/s] | viscosity [mPa·s]
298.15 K, x2 = 0 | 796.99 | 1193.8 | 0.43
298.15 K, x2 = 0.0222 | – | 1192 | –
298.15 K, x2 = 0.0464 | – | 1190.7 | –
298.15 K, x2 = 0.0748 | – | 1189.2 | –
298.15 K, x2 = 0.1056 | 979.73 | 1187.5 | 1.53
298.15 K, x2 = 0.2135 | 1105.53 | 1191.7 | 3.32
298.15 K, x2 = 0.3088 | 1185.23 | 1196.2 | 5.62
298.15 K, x2 = 0.4153 | 1251.86 | 1200.5 | 8.98
298.15 K, x2 = 0.5025 | 1294.27 | 1204.2 | 12.42
298.15 K, x2 = 0.5987 | 1332.31 | 1208.6 | 16.22
298.15 K, x2 = 0.6852 | 1360.82 | 1213.2 | 20.37
298.15 K, x2 = 0.7729 | 1385.61 | 1217.5 | 25.55
298.15 K, x2 = 0.8852 | 1412.72 | 1223.9 | 34.29
303.15 K, x2 = 0 | 791.8 | 1172.7 | 0.4
303.15 K, x2 = 0.0222 | – | 1171.6 | –
303.15 K, x2 = 0.0464 | – | 1170.9 | –
303.15 K, x2 = 0.0748 | – | 1170 | –
303.15 K, x2 = 0.1056 | 975.4 | 1169 | 1.24
303.15 K, x2 = 0.2135 | 1101.73 | 1173.6 | 2.62
303.15 K, x2 = 0.3088 | 1181.18 | 1179.9 | 4.29
303.15 K, x2 = 0.4153 | 1247.94 | 1185.4 | 6.76
303.15 K, x2 = 0.5025 | 1290.44 | 1189.5 | 9.23
303.15 K, x2 = 0.5987 | 1328.49 | 1195.7 | 12.08
303.15 K, x2 = 0.6852 | 1356.74 | 1200.6 | 15.05
303.15 K, x2 = 0.7729 | 1381.37 | 1206.6 | 19.07
303.15 K, x2 = 0.8852 | 1408.37 | 1213.6 | 26.85
308.15 K, x2 = 0 | 786.41 | 1151.6 | 0.39
308.15 K, x2 = 0.0222 | – | 1150.1 | –
308.15 K, x2 = 0.0464 | – | 1149.4 | –
308.15 K, x2 = 0.0748 | – | 1148.8 | –
308.15 K, x2 = 0.1056 | 971.06 | 1149.6 | 0.98
308.15 K, x2 = 0.2135 | 1097.08 | 1154.8 | 1.98
308.15 K, x2 = 0.3088 | 1176.97 | 1161.6 | 3.18
308.15 K, x2 = 0.4153 | 1243.96 | 1168.7 | 4.87
308.15 K, x2 = 0.5025 | 1286.66 | 1174.3 | 6.66
308.15 K, x2 = 0.5987 | 1324.67 | 1180.5 | 8.73
308.15 K, x2 = 0.6852 | 1352.96 | 1186.4 | 10.93
308.15 K, x2 = 0.7729 | 1377.44 | 1193.6 | 14.71
308.15 K, x2 = 0.8852 | 1404.09 | 1201 | 21.85
313.15 K, x2 = 0 | 781.37 | 1130.6 | 0.36
313.15 K, x2 = 0.0222 | – | 1129.3 | –
313.15 K, x2 = 0.0464 | – | 1128.5 | –
313.15 K, x2 = 0.0748 | – | 1127.9 | –
313.15 K, x2 = 0.1056 | 966.81 | 1129.2 | 0.8
313.15 K, x2 = 0.2135 | 1092.97 | 1136.5 | 1.53
313.15 K, x2 = 0.3088 | 1173.06 | 1144.7 | 2.39
313.15 K, x2 = 0.4153 | 1240.28 | 1152.6 | 3.69
313.15 K, x2 = 0.5025 | 1282.97 | 1159.6 | 5.13
313.15 K, x2 = 0.5987 | 1320.95 | 1166.8 | 6.82
313.15 K, x2 = 0.6852 | 1349.19 | 1174.2 | 8.86
313.15 K, x2 = 0.7729 | 1373.41 | 1181.8 | 11.8
313.15 K, x2 = 0.8852 | 1399.8 | 1189.6 | 17.93
318.15 K, x2 = 0 | 776.39 | 1109.6 | 0.35
318.15 K, x2 = 0.0222 | – | 1108.4 | –
318.15 K, x2 = 0.0464 | – | 1107.7 | –
318.15 K, x2 = 0.0748 | – | 1107 | –
318.15 K, x2 = 0.1056 | 961.43 | 1109 | 0.69
318.15 K, x2 = 0.2135 | 1088.71 | 1118.4 | 1.23
318.15 K, x2 = 0.3088 | 1169.26 | 1128.2 | 1.96
318.15 K, x2 = 0.4153 | 1236.78 | 1137.7 | 2.96
318.15 K, x2 = 0.5025 | 1279.56 | 1145.2 | 4.06
318.15 K, x2 = 0.5987 | 1317.62 | 1153.1 | 5.62
318.15 K, x2 = 0.6852 | 1345.51 | 1162.1 | 7.72
318.15 K, x2 = 0.7729 | 1369.39 | 1170.1 | 10.43
318.15 K, x2 = 0.8852 | 1395.55 | 1179.3 | 15.49
323.15 K, x2 = 0 | 771.3 | 1088.8 | 0.32
323.15 K, x2 = 0.0222 | – | 1087.5 | –
323.15 K, x2 = 0.0464 | – | 1086.7 | –
323.15 K, x2 = 0.0748 | – | 1086.1 | –
323.15 K, x2 = 0.1056 | 957.54 | 1087.8 | 0.56
323.15 K, x2 = 0.2135 | 1084.6 | 1099.2 | 0.94
323.15 K, x2 = 0.3088 | 1165.17 | 1110.2 | 1.43
323.15 K, x2 = 0.4153 | 1232.87 | 1120.3 | 2.24
323.15 K, x2 = 0.5025 | 1275.6 | 1128.5 | 3.07
323.15 K, x2 = 0.5987 | 1313.47 | 1138.5 | 4.43
323.15 K, x2 = 0.6852 | 1341.63 | 1147.2 | 6.21
323.15 K, x2 = 0.7729 | 1365.48 | 1156.5 | 8.42
323.15 K, x2 = 0.8852 | 1391.08 | 1166.2 | 12.99
